Active and inactive are the calls of the source. The rule behind the calls is not given here.
Target: Alkaline phosphatase, germ cell type (Homo sapiens) (UniProt P10696)
Experiment: placental-like alkaline phosphatase activators or inhibitors – biochemical, human placental-like ALPPL2 isozyme, selectivity assay for mouse IAP activator project, SAR follow-up (AID 493139)
Conditions: purified human placental-like alkaline phosphatase, enzymatic activity

Alkaline phosphatase, germ cell type (Homo sapiens), sequence (P10696 whole entry, looked up): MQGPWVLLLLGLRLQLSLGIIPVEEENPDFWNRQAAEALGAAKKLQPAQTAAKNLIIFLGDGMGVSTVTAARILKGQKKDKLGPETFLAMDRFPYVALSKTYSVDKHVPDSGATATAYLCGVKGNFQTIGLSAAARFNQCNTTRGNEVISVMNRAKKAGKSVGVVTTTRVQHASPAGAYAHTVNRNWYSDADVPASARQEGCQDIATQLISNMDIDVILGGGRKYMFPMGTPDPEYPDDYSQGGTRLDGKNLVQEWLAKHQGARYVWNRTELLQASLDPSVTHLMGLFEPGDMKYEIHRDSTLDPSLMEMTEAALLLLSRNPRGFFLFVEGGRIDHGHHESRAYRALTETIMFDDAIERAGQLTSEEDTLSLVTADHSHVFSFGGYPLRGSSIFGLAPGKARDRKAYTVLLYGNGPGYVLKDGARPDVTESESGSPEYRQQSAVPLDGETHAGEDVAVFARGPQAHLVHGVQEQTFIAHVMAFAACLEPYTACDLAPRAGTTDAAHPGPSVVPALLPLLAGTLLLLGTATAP

| SMILES | IC50 (inhibition of PLAP activity) |
| --- | --- |
| COc1ccc(NC(=S)NCCC(c2ccccc2)c2ccccc2)cc1 | 40.7 µM |
| N#Cc1c(SCC(=O)Nc2nccs2)sc2c(O)cc(=O)[nH]c12 | > 100 µM (inactive) |
| COc1ccc(OC)c(NC(=O)CSc2sc3c(O)cc(=O)[nH]c3c2C#N)c1 | > 100 µM (inactive) |
| COc1ccc(OC)c(NC(=O)CCNS(=O)(=O)c2ccc3[nH]c(=O)oc3c2)c1 | > 100 µM (inactive) |
| COc1ccccc1CNC(=O)CCNS(=O)(=O)c1ccc2[nH]c(=O)oc2c1 | > 100 µM (inactive) |
| N#Cc1c(SCC(=O)NCc2ccc3c(c2)OCO3)sc2c(O)cc(=O)[nH]c12 | > 100 µM (inactive) |
| O=C(N/N=C/c1ccsc1)c1cc(O)c(O)c(O)c1 | > 100 µM (inactive) |
| COc1cc(C(=O)NNC(=O)c2n[nH]c3ccccc23)cc(OC)c1OC | 21.9 µM |
| COc1cc(Cl)c(C)cc1NC(=O)CSc1sc2c(O)cc(=O)[nH]c2c1C#N | > 100 µM (inactive) |
| CCSc1nnc(NC(=O)CSc2sc3c(O)cc(=O)[nH]c3c2C#N)s1 | > 100 µM (inactive) |
| CCCSc1nnc(NC(=O)CSc2sc3c(O)cc(=O)[nH]c3c2C#N)s1 | > 100 µM (inactive) |

The next lines start with the values.

| IC50 (inhibition of PLAP activity) | SMILES |
| --- | --- |
| > 100 µM (inactive) | COc1ccc(Cl)cc1NC(=O)CSc1sc2c(O)cc(=O)[nH]c2c1C#N |
| > 100 µM (inactive) | COC(=O)c1ccc(C)c(NC(=O)CSc2sc3c(O)cc(=O)[nH]c3c2C#N)c1 |
| > 100 µM (inactive) | N#Cc1c(SCC(=O)Nc2ccc(Cl)cc2Cl)sc2c(O)cc(=O)[nH]c12 |
| 78.4 µM | O=C(CN1C(=O)/C(=C/c2ccco2)SC1=S)Nc1ccc(C(=O)O)c(O)c1 |
| > 100 µM (inactive) | Cc1ccc(/C=N/NC(=O)c2cc(O)c(O)c(O)c2)cc1 |
| > 100 µM (inactive) | N#Cc1cccc(NC(=O)CCNS(=O)(=O)c2ccc3[nH]c(=O)oc3c2)c1 |
| > 100 µM (inactive) | N#Cc1c(SCC(=O)Nc2nncs2)sc2c(O)cc(=O)[nH]c12 |
| > 100 µM (inactive) | O=C(CN1C(=O)/C(=C\c2ccco2)SC1=S)Nc1ccc(C(=O)O)cc1 |
| > 100 µM (inactive) | O=C(CN1C(=O)/C(=C\c2ccco2)SC1=S)Nc1ccc(O)cc1C(=O)O |
| > 100 µM (inactive) | O=C(N/N=C/c1ccco1)c1cc(O)c(O)c(O)c1 |
| > 100 µM (inactive) | CCc1ccc(NC(=O)CN(C)S(=O)(=O)c2ccc3[nH]c(=O)oc3c2)cc1 |
| > 100 µM (inactive) | O=C(CCCN1C(=O)/C(=C\c2ccco2)SC1=S)Nc1ccc(O)cc1C(=O)O |
